Results: article PMC12291851, “Hydrogen Sulfide (H2S)-Donating Formyl Peptide Receptor 2 (FPR2) Agonists: Design, Synthesis, and Biological Evaluation in Primary Mouse Microglia Culture” (Antioxidants, 2025)

Experiments:
FPR2 = target: T1, FPR2 (Homo sapiens, UniProt P25090); test: cell-based
T1 sequence (P25090 1-351): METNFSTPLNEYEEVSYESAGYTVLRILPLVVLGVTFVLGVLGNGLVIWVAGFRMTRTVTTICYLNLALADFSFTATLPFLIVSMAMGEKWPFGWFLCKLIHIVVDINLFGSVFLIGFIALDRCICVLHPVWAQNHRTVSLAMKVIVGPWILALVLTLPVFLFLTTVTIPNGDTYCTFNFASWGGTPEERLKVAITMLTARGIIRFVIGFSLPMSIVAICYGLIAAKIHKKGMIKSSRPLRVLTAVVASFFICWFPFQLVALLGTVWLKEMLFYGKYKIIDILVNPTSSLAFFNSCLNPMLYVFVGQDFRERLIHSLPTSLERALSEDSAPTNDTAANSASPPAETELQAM

[1] = Cell-free H2S release fluorescence assay with probe 9 (7-azido-4-methylcoumarin); format: physicochemical; conditions: PBS/DMSO 10%, 37 °C, probe 9 100 μM
Protocol: The H2S release fluorescence assay was carried out in a final volume of 100 μL PBS/DMSO 10% in black 96-well plates. Solutions with decreasing concentrations of each tested compound were prepared in PBS/DMSO 10%. Then, 50 μL of each solution was dispensed in triplicate in each well. Starting from a 10 mM stock solution, a 200 μM solution of probe 9 was prepared and stored in the dark until 50 μL was dispensed in each well. Blank wells containing only the probe at 100 μM in 100 μL of PBS/DMSO 10% are also prepared. A H2S calibration curve was obtained by incubating solutions of NaSH with the probe under the same conditions, although a different plate was used to minimize interferences due to the diffusion of rapidly released H2S. After 24 h and 48 h incubation in a humidified incubator at 37 °C, 5% CO2, fluorescence reads are obtained from each well with a plate reader TECAN M1000 Pro (Tecan, Männedorf, Switzerland), at λex = 350 nm and λem = 440 nm. Each experiment was replicated at least three times. The data were processed using Microsoft Excel (Microsoft, Redmond, WA, USA) and GraphPad Prism 7 (GraphPad Software, La Jolla, CA, USA).
Compound 9 is a turn-on fluorescent probe that features an azido moiety which can be reduced to amine by H2S, leading to the formation of the fluorescent derivative 7-amino-4-methylcoumarin 10 (λex = 350 nm and λem = 440 nm, Scheme 2). We included NaHS in the assay as a positive control and 3a as a negative control.

SMILES | EC50 (FPR2) | H2S release detected with probe 9 in aqueous media ([1]; 24 h incubation) | H2S release detected with probe 9 in aqueous media ([1]; 48 h incubation)
N#Cc1ccc(C[C@H](NC(=O)Nc2ccc(F)cc2)C(=S)N2CCc3ccccc32)cc1 [7b, (S)-1-[3-(4-Cyanophenyl)-1-(indolin-1-yl)-1-thioxopropan-2-yl]-3-(4-fluorophenyl)urea] | 600 ± 200 nM | detected H2S release | more intense
N#Cc1ccc(C[C@H](NC(=O)Nc2ccc(Br)cc2)C(=S)N2CCc3ccccc32)cc1 [8b, (S)-1-(4-Bromophenyl)-3-[3-(4-cyanophenyl)-1-(indolin-1-yl)-1-thioxopropan-2-yl]urea] | 40 ± 20 nM |  | limited capability to release H2S
